Source: patent publication US11446287B2, “Compounds and methods for EP300 or CBP modulation and indications therefor” (Opna Immuno-Oncology SA, priority 2019, dated 2022)

Target: T1, Recombinant human CBP containing the bromodomain (CBP-BD (1043-1159)) (Homo sapiens, UniProt Q92793)
T1 construct: Recombinant human CBP bromodomain (CBP-BD (1043-1159)); made in house; host or cells: E. coli BL21-CodonPlus (DE3), modified pET vector
Assay: CBP Alphascreen binding assay
Conditions: read-out: CREBBP (CBP) IC50
Summary of the method: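 Buffer: 50 mM HEPES pH 7.5, 50 mM NaCl, 0.01% BSA, 0.01% Triton X-100, 2 mM DTT. The signal was normalised to plate controls and fitted with a four-parameter curve to give IC50.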

T1 sequence (Q92793 1081-1197): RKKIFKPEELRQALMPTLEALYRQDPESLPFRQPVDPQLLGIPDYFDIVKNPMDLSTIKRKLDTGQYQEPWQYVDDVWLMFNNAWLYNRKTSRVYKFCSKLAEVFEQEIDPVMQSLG

| SMILES | IC50 [nM] |
| --- | --- |
| COc1ccc(-n2cc(-c3ccc(C(=O)O)cc3OC(F)(F)F)c3cc(-c4c(C)noc4C)cnc32)c(F)c1 [P-0311, 4-(5-(3,5-dimethylisoxazol-4-yl)-1-(2-fluoro-4-methoxyphenyl)-1H-pyrrolo[2,3-b]pyridin-3-yl)-3-(trifluoromethoxy)benzoic acid] | 0.1 to 1000 |
| COc1cc(-c2c(C(F)(F)F)n([C@@H](C)c3ccccn3)c3cc(-c4c(C)noc4C)cnc23)ccc1C(=O)O [P-0244, (S)-4-(6-(3,5-dimethylisoxazol-4-yl)-1-(1-(pyridin-2-yl)ethyl)-2-(trifluoromethyl)-1H-pyrrolo[3,2-b]pyridin-3-yl)-2-methoxybenzoic acid] | 1000 to 8000 |
| CCCn1nc(C(=O)O)c(NCC)c1-c1cn(-c2ccc(F)cc2F)c2ncc(-c3c(C)noc3C)cc12 [P-0304, 5-(1-(2,4-difluorophenyl)-5-(3,5-dimethylisoxazol-4-yl)-1H-pyrrolo[2,3-b]pyridin-3-yl)-4-(ethylamino)-1-propyl-1H-pyrazole-3-carboxylic acid] | 0.1 to 1000 |
| COc1cc(C(=O)O)cc(C)c1-c1cn(-c2ccccc2)c2ncc(-c3c(C)noc3C)cc12 [P-0255, 4-(5-(3,5-dimethylisoxazol-4-yl)-1-phenyl-1H-pyrrolo[2,3-b]pyridin-3-yl)-3-methoxy-5-methylbenzoic acid] | 0.1 to 1000 |
| Cc1noc(C)c1-c1cnc2c(c1)c(-c1ccc(C(=O)O)cc1OC(F)(F)F)cn2-c1ccccc1C#N [P-0309, 4-(1-(2-cyanophenyl)-5-(3,5-dimethylisoxazol-4-yl)-1H-pyrrolo[2,3-b]pyridin-3-yl)-3-(trifluoromethoxy)benzoic acid] | 0.1 to 1000 |
| CCOc1cc(C(=O)O)cc(OCC)c1-n1cc(-c2cnn(CCN(C)C)c2)c2ncc(-c3c(C)noc3C)cc21 [P-0262, 4-(3-(1-(2-(dimethylamino)ethyl)-1H-pyrazol-4-yl)-6-(3,5-dimethylisoxazol-4-yl)-1H-pyrrolo[3,2-b]pyridin-1-yl)-3,5-diethoxybenzoic acid] | 0.1 to 1000 |
| CCOc1cc(C(=O)O)ncc1-c1cn(-c2ccc(F)cc2F)c2ncc(-c3c(C)noc3C)cc12 [P-0295, 5-(1-(2,4-difluorophenyl)-5-(3,5-dimethylisoxazol-4-yl)-1H-pyrrolo[2,3-b]pyridin-3-yl)-4-ethoxypicolinic acid] | 0.1 to 1000 |
| Cc1noc(C)c1-c1cnc2c(c1)c(-c1ccc3c(c1)CNC3=O)cn2C(c1ccccn1)C1CCCC1 (stereo not shown) [P-0023, 5-(1-(cyclopentyl(pyridin-2-yl)methyl)-5-(3,5-dimethylisoxazol-4-yl)-1H-pyrrolo[2,3-b]pyridin-3-yl)isoindolin-1-one] | 1000 to 8000 |
| CCCn1nc(C(=O)O)c(N)c1-c1cn(-c2ccc(F)cc2F)c2ncc(-c3c(C)noc3C)cc12 [P-0303, 4-amino-5-(1-(2,4-difluorophenyl)-5-(3,5-dimethylisoxazol-4-yl)-1H-pyrrolo[2,3-b]pyridin-3-yl)-1-propyl-1H-pyrazole-3-carboxylic acid] | 0.1 to 1000 |
| Cc1noc(C)c1-c1cnc2c(c1)c(-c1ccc(C(=O)O)cc1OCC(F)F)cn2-c1ccccc1 [P-0277, 3-(2,2-difluoroethoxy)-4-(5-(3,5-dimethylisoxazol-4-yl)-1-phenyl-1H-pyrrolo[2,3-b]pyridin-3-yl)benzoic acid] | 0.1 to 1000 |
| Cc1noc(C)c1-c1cnc2c(c1)c(-c1ccc(C(=O)O)cc1OCC(F)(F)F)cn2-c1ccccc1 [P-0278, 4-(5-(3,5-dimethylisoxazol-4-yl)-1-phenyl-1H-pyrrolo[2,3-b]pyridin-3-yl)-3-(2,2,2-trifluoroethoxy)benzoic acid] | 0.1 to 1000 |
| CCOc1cc(C(=O)O)cc(OCC)c1-n1cc(CC2CCC2)c2ncc(-n3c(C)nnc3C)cc21 [P-0270, 4-(3-(cyclobutylmethyl)-6-(3,5-dimethyl-4H-1,2,4-triazol-4-yl)-1H-pyrrolo[3,2-b]pyridin-1-yl)-3,5-diethoxybenzoic acid] | 1000 to 8000 |
| Cc1noc(C)c1-c1cnc2c(c1)c(-c1ccc(C(=O)O)cc1OC(F)(F)F)cn2-c1cnc(N2CCC2)nc1 [P-0281, 4-(1-(2-(azetidin-1-yl)pyrimidin-5-yl)-5-(3,5-dimethylisoxazol-4-yl)-1H-pyrrolo[2,3-b]pyridin-3-yl)-3-(trifluoromethoxy)benzoic acid] | 0.1 to 1000 |
| Cc1noc(C)c1-c1cnc2c(c1)c(-c1ccc(C(=O)O)cc1OC(F)(F)F)cn2-c1ccc(C(C)(C)O)cc1 [P-0314, 4-(5-(3,5-dimethylisoxazol-4-yl)-1-(4-(2-hydroxypropan-2-yl)phenyl)-1H-pyrrolo[2,3-b]pyridin-3-yl)-3-(trifluoromethoxy)benzoic acid] | 0.1 to 1000 |
| C=C(C)c1ccccc1-n1cc(-c2ccc(C(=O)O)cc2OC(F)(F)F)c2cc(-c3c(C)noc3C)cnc21 [P-0312, 4-(5-(3,5-dimethylisoxazol-4-yl)-1-(2-(prop-1-en-2-yl)phenyl)-1H-pyrrolo[2,3-b]pyridin-3-yl)-3-(trifluoromethoxy)benzoic acid] | 0.1 to 1000 |
| CCOc1cc(C(=O)O)cc(OCC)c1-n1cc(-c2cn(C(C)C)nc2C)c2ncc(-c3c(C)noc3C)cc21 [P-0259, 4-(6-(3,5-dimethylisoxazol-4-yl)-3-(1-isopropyl-3-methyl-1H-pyrazol-4-yl)-1H-pyrrolo[3,2-b]pyridin-1-yl)-3,5-diethoxybenzoic acid] | 0.1 to 1000 |
